Each structure is given as a SMILES string.

IC50 data for 48 compounds are collected here from patent publication US10227329B2, “Compounds useful for treating disorders related to RET” (BLUEPRINT MEDICINES CORPORATION, priority 2016, dated 2019).

The target of assay [1] is wild type RET (Homo sapiens (Human), UniProt P07949). Description: RET Wild Type Assay at KM (Caliper electrophoretic mobility shift). Format: biochemical. The following applies: 25 μM ATP (KM).
In assay [2] the target is RET V804L (Homo sapiens (Human), UniProt P07949, V804L). Description: RET V804L Gatekeeper Mutant Assay at KM (Caliper electrophoretic mobility shift). It counts as biochemical. The following applies: 10 μM ATP (KM), read-out: V480L Mutant.
RET V804L, sequence (P07949 29-1114 V804L): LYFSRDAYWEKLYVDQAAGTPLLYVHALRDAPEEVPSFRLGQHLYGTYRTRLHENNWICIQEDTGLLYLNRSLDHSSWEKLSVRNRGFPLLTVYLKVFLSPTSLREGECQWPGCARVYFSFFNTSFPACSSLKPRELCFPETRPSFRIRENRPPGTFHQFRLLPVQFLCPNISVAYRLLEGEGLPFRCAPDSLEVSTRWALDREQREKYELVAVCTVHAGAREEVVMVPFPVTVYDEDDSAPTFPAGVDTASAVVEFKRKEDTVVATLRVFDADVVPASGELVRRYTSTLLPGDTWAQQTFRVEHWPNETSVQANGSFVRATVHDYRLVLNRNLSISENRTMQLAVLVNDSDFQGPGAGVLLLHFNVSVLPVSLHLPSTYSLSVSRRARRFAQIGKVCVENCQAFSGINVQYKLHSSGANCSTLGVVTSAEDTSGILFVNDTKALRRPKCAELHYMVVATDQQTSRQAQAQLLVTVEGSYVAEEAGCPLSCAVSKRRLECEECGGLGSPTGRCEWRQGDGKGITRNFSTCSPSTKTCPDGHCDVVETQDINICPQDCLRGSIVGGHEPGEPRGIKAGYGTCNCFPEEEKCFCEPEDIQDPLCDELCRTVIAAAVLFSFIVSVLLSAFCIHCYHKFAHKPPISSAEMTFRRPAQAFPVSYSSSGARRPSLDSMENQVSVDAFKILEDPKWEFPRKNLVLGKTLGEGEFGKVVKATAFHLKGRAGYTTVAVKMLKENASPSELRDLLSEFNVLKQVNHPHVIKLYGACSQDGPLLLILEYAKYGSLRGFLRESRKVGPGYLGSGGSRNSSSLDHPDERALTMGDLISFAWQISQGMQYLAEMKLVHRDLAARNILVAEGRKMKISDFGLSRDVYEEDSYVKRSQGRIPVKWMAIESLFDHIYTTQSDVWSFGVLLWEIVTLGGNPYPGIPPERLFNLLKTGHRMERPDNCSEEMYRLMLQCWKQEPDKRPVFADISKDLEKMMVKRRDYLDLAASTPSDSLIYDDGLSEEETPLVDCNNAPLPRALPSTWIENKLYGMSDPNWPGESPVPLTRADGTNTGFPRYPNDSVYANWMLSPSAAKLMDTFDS

wild type RET, sequence (P07949 29-1114): as the sequence (P07949 29-1114 V804L) above, with L776V counted along it

For `Cc1cc(Nc2cc(C)[nH]n2)nc(N2CCC(C(=O)NCc3ccccc3)CC2)n1` [Compound 100], the IC50 in assay [1] is more than 100 nM; in assay [2], 10 to 100 nM.
In the same order, the values of `Cc1cc(Nc2cc(C)[nH]n2)nc(N2CCC(C)(C(=O)NCc3ccccc3)CC2)n1` [Compound 101] are 10 to 100 nM and 10 to 100 nM.
Consider `Cc1cc(Nc2cc(C)[nH]n2)nc(N2CCC(O)(C(=O)NCc3ccccc3)CC2)c1` [Compound 102], for which the IC50 was more than 100 nM in assay [1] and 10 to 100 nM in assay [2].
In the same order, the values of `Cc1cc(Nc2cc(C)[nH]n2)nc(N2CCC(O)(C(=O)NCc3ccccc3)CC2)n1` [Compound 103] are more than 100 nM and more than 100 nM.
In the same order, the values of `COC1(C(=O)NCc2ccccc2)CCN(c2nc(C)cc(Nc3cc(C)[nH]n3)n2)CC1` [Compound 104] are more than 100 nM and 10 to 100 nM.
The like results for `COc1ccc(CNC(=O)C2(O)CCN(c3cc(C)cc(Nc4cc(C)[nH]n4)n3)CC2)cc1` [Compound 105] were, in that order, 10 to 100 nM and 10 to 100 nM.
As to `COc1ccc(CNC(=O)C2(O)CCN(c3nc(C)cc(Nc4cc(C)[nH]n4)n3)CC2)cc1` [Compound 106], the IC50 in assay [1] was more than 100 nM; in assay [2], 10 to 100 nM.
The like results for `Cc1cc(Nc2cc(C)[nH]n2)nc(N2CC(C)(C(=O)NCc3ccc(-n4cccn4)nc3)C2)c1` [Compound 107, N-((6-(1H-pyrazol-1-yl)pyridin-3-yl)methyl)-3-methyl-1-(4-methyl-6-((5-methyl-1H-pyrazol-3-yl)amino)pyridin-2-yl)azetidine-3-carboxamide] were, in that order, less than 10 nM and less than 10 nM.
On to `Cc1cc(Nc2cc(C)[nH]n2)nc(N2CC(O)(C(=O)NCc3ccc(-n4cccn4)nc3)C2)c1` [Compound 110], for which the figures for the IC50 in assay [1] and in assay [2] were 10 to 100 nM and less than 10 nM, respectively.
As for `Cc1cc(Nc2cc(C)[nH]n2)nc(N2CC(F)(C(=O)NCc3ccc(-n4cccn4)nc3)C2)c1` [Compound 111], the IC50 in assay [1] and in assay [2] was less than 10 nM throughout.
Consider `Cc1cc(Nc2cc(C)[nH]n2)nc(N2CC(F)(C(=O)NCc3ccc(-n4cccn4)nc3)C2)n1` [Compound 112], for which the IC50 in assay [1] and in assay [2] was less than 10 nM throughout.
On to `CCOc1ccc(CNC(=O)C2(O)CCN(c3cc(C)cc(Nc4cc(C)[nH]n4)n3)CC2)cc1` [Compound 113], for which the IC50 in assay [1] is 10 to 100 nM; in assay [2], less than 10 nM.
The like results for `COc1ccc([C@H](C)NC(=O)C2(O)CCN(c3cc(C)cc(Nc4cc(C)[nH]n4)n3)CC2)cc1` [Compound 114] were, in that order, 10 to 100 nM and 10 to 100 nM.
The like results for `CCOc1ccc(CNC(=O)C2(O)CCN(c3nc(C)cc(Nc4cc(C)[nH]n4)n3)CC2)cc1` [Compound 115] were, in that order, 10 to 100 nM and 10 to 100 nM.
In the same order, the values of `COc1ccc([C@H](C)NC(=O)C2(O)CCN(c3nc(C)cc(Nc4cc(C)[nH]n4)n3)CC2)cc1` [Compound 116] are more than 100 nM and 10 to 100 nM.
Turning to `Cc1cc(Nc2cc(C)[nH]n2)nc(N2CC(C)(C(=O)N[C@@H](C)c3ccc(-n4cccn4)nc3)C2)c1` [Compound 117], the IC50 in assay [1] and in assay [2] was less than 10 nM throughout.
With `Cc1cc(Nc2cc(C)[nH]n2)nc(N2CCC(C(=O)NCc3ccc(-n4cccn4)nc3)CC2)n1` [Compound 118], the IC50 in assay [1] and in assay [2] was less than 10 nM throughout.
Consider `Cc1cc(Nc2cc(C)[nH]n2)nc(N2CC(C(=O)N[C@@H](C)c3ccc(-n4cc(F)cn4)nc3)C2)c1` [Compound 119], for which the IC50 in assay [1] and in assay [2] was less than 10 nM throughout.
Regarding `Cc1cc(Nc2cc(C)[nH]n2)nc(N2CC(C)(C(=O)NCc3ccc(-n4cc(F)cn4)nc3)C2)c1` [Compound 120], the IC50 in assay [1] and in assay [2] was less than 10 nM in each case.
In the case of `Cc1cc(Nc2cc(C)[nH]n2)nc(N2CC(C(=O)N[C@@H](C)c3ccc(-n4cc(F)cn4)nc3)C2)n1` [Compound 121], the IC50 in assay [1] and in assay [2] was less than 10 nM in each case.
`Cc1cc(Nc2cc(C)[nH]n2)nc(N2CC(F)(C(=O)N[C@@H](C)c3ccc(-n4cccn4)nc3)C2)n1` [Compound 122]: the IC50 in assay [1] and in assay [2] was less than 10 nM throughout.
In the case of `COc1ccc([C@H](C)NC(=O)C2(OC)CCN(c3nc(C)cc(Nc4cc(C)[nH]n4)n3)CC2)cc1` [Compound 123], the IC50 in assay [1] and in assay [2] was 10 to 100 nM in each case.
Take `Cc1cc(Nc2cc(C)[nH]n2)nc(N2CC(F)(C(=O)NCc3ccc(-n4cc(F)cn4)nc3)C2)n1` [Compound 124]: the IC50 in assay [1] and in assay [2] was less than 10 nM throughout.
Take `COC1(C(=O)NCc2ccc(N3CC(F)C3)nc2)CN(c2nc(C)cc(Nc3cc(C)[nH]n3)n2)C1` [Compound 125]: the IC50 in assay [1] and in assay [2] was more than 100 nM in each case.
As for `Cc1cc(Nc2cc(C)[nH]n2)nc(N2CC(C#N)(C(=O)N[C@@H](C)c3ccc(-n4cccn4)nc3)C2)n1` [Compound 126], the IC50 in assay [1] and in assay [2] was less than 10 nM in each case.
As for `Cc1cc(Nc2cc(C)[nH]n2)nc(N2CCC(C)(C(=O)NCc3ccc(-n4cccn4)nc3)CC2)c1` [Compound 127], the IC50 in assay [1] and in assay [2] was less than 10 nM throughout.
With `Cc1cc(Nc2cc(C)c(C#N)c(N3CC(F)(C(=O)NCc4ccc(-n5cccn5)nc4)C3)n2)n[nH]1` [Compound 128], the IC50 in assay [1] and in assay [2] was less than 10 nM each time.
For `Cc1cc(Nc2cc(C)[nH]n2)nc(N2CCC(C)(C(=O)NCc3ccc(-n4cccn4)nc3)CC2)n1` [Compound 129], the IC50 in assay [1] and in assay [2] was less than 10 nM each time.
For the compound `CCC1(C(=O)N[C@@H](C)c2ccc(-n3cccn3)nc2)CN(c2nc(C)cc(Nc3cc(C)[nH]n3)n2)C1` [Compound 130], the IC50 in assay [1] and in assay [2] was less than 10 nM throughout.
For `Cc1cc(Nc2cc(C)[nH]n2)nc(N2CCC(O)(C(=O)NCc3ccc(-n4cccn4)nc3)CC2)c1` [Compound 131], the IC50 in assay [1] and in assay [2] was less than 10 nM each time.
Turning to `Cc1cc(Nc2cc(C)[nH]n2)nc(N2CC[C@H](C(=O)NCc3ccc(-n4cccn4)nc3)[C@@H](O)C2)c1` [Compound 132], the IC50 in assay [1] and in assay [2] was less than 10 nM each time.
For the compound `Cc1cc(Nc2cc(C)[nH]n2)nc(N2CC[C@@H](C(=O)NCc3ccc(-n4cccn4)nc3)[C@H](O)C2)c1` [Compound 133], the IC50 in assay [1] and in assay [2] was less than 10 nM each time.
With `Cc1cc(Nc2cc(C)[nH]n2)nc(N2CC[C@@H](C(=O)NCc3ccc(-n4cccn4)nc3)[C@@H](O)C2)c1` [Compound 134], the IC50 in assay [1] and in assay [2] was less than 10 nM throughout.
As for `Cc1cc(Nc2cc(C)[nH]n2)nc(N2CC[C@H](C(=O)NCc3ccc(-n4cccn4)nc3)[C@H](O)C2)c1` [Compound 135], the IC50 in assay [1] and in assay [2] was 10 to 100 nM throughout.
Regarding `Cc1cc(Nc2cc(C)[nH]n2)nc(N2CCC(O)(C(=O)NCc3ccc(-n4cccn4)nc3)CC2)n1` [Compound 136, N-((6-(1H-pyrazol-1-yl)pyridin-3-yl)methyl)-4-hydroxy-1-(4-methyl-6-(3-methyl-1H-pyrazol-5-ylamino)pyrimidin-2-yl)piperidine-4-carboxamide], the IC50 in assay [1] and in assay [2] was less than 10 nM throughout.
Turning to `COC1(C(=O)NCc2ccc(-n3ccc(C)n3)nc2)CN(c2nc(C)cc(Nc3cc(C)[nH]n3)n2)C1` [Compound 137], the IC50 in assay [1] and in assay [2] was less than 10 nM in each case.
Take `COC1(C(=O)NCc2ccc(-n3cc(C)cn3)nc2)CN(c2nc(C)cc(Nc3cc(C)[nH]n3)n2)C1` [Compound 138]: the IC50 is 10 to 100 nM in assay [1] and less than 10 nM in assay [2].
The like results for `Cc1cc(Nc2cc(C)[nH]n2)nc(N2CC(C)(C(=O)N[C@@H](C)c3ccc(-n4cc(F)cn4)nc3)C2)c1` [Compound 139] were, in that order, less than 10 nM and less than 10 nM.
`Cc1cc(Nc2cc(C)[nH]n2)nc(N2CC(C(=O)N(C)[C@@H](C)c3ccc(-n4cc(F)cn4)nc3)C2)c1` [Compound 140]: the IC50 in assay [1] and in assay [2] was less than 10 nM each time.
As to `Cc1cc(Nc2cc(C)[nH]n2)nc(N2CCC(F)(C(=O)NCc3ccc(-n4cccn4)nc3)CC2)n1` [Compound 141], the IC50 in assay [1] and in assay [2] was less than 10 nM throughout.
Consider `Cc1cc(Nc2cc(C)[nH]n2)nc(N2CC(C(=O)N(C)[C@@H](C)c3ccc(-n4cc(F)cn4)nc3)C2)n1` [Compound 142], for which the IC50 in assay [1] and in assay [2] was less than 10 nM each time.
Turning to `Cc1cc(Nc2cc(C)[nH]n2)nc(N2C[C@@H](C(=O)N[C@@H](C)c3ccc(-n4cc(F)cn4)nc3)[C@@H]2C)n1` [Compound 143], the IC50 in assay [1] and in assay [2] was less than 10 nM each time.
For `Cc1cc(Nc2cc(C)[nH]n2)nc(N2C[C@H](C(=O)N[C@@H](C)c3ccc(-n4cc(F)cn4)nc3)[C@H]2C)n1` [Compound 144], the IC50 in assay [1] and in assay [2] was less than 10 nM each time.
In the case of `Cc1cc(Nc2cc(C)[nH]n2)nc(N2CC(O)(C(=O)N[C@@H](C)c3ccc(-n4cc(F)cn4)nc3)C2)c1` [Compound 145], the IC50 in assay [1] and in assay [2] was less than 10 nM throughout.
Take `COC1(C(=O)NCc2ccc(-n3cccn3)nc2)CN(c2nc(Nc3cc(C)[nH]n3)cc(C)c2F)C1` [Compound 146]: the IC50 in assay [1] and in assay [2] was less than 10 nM each time.
`COC1(C(=O)N[C@@H]2CCN(c3ccccn3)C2)CCN(c2nc(C)cc(Nc3cc(C)[nH]n3)n2)CC1` [Compound 147]: the IC50 in assay [1] and in assay [2] was 10 to 100 nM throughout.
Regarding `COC1(C(=O)NCc2ccc(-n3cc(F)cn3)nc2)CN(c2nc(C)cc(Nc3cc(C)[nH]n3)n2)C1` [Compound 148], the IC50 in assay [1] and in assay [2] was less than 10 nM throughout.
`COC1(C(=O)N[C@@H](C)c2ccc(-n3cc(F)cn3)nc2)CN(c2nccc(Nc3cc(C)[nH]n3)n2)C1` [Compound 149]: the IC50 in assay [1] and in assay [2] was less than 10 nM in each case.
